{"source": "patent US20250312333A1", "about": "“COMPOSITION CONTAINING ARIPIPRAZOLE AS ACTIVE INGREDIENT FOR ENHANCING ANTICANCER EFFECT OF KRAS G12C GENETIC MUTATION THERAPEUTIC AGENT” (KOREA INSTITUTE OF RADIOLOGICAL & MEDICAL SCIENCES, priority 2022, published 2025)", "format_in_all_cases": "cell-based", "key": {"[1]": {"tested_on": "NCI-H1373 cells", "assay": "PARP cleavage (apoptosis) by Western blot in NCI-H1373 cells", "conditions": "co-treatment with the therapeutic agent for KRAS G12C genetic mutation vs either agent alone, twenty four hours (FIG. 4)", "experimental": "To identify the effect of aripiprazole on apoptosis induced by the therapeutic agent for KRAS G12C genetic mutation in cancer cells, NCI-H1373 cells were treated with aripiprazole alone or in combination with the therapeutic agent for KRAS G12C genetic mutation. Twenty four hours later, proteins were extracted from cells after washing with PBS, and the degree of PARP cleavage was checked via Western blot."}, "[2]": {"tested_on": "NOXA protein", "assay": "NOXA protein expression by Western blot in NCI-H1373 cells", "conditions": "aripiprazole treatment, eight hours, Western blot (FIG. 1)", "experimental": "(§1) To identify an effect of aripiprazole on the expression of a NOXA protein in cancer cells, MIA PaCa-2 cells and NCI-H1373 cells were treated with aripiprazole. Eight hours later, proteins were extracted from cells after washing with PBS, and a level of NOXA expression was checked via Western blot."}, "[3]": {"tested_on": "MIA PaCa-2 cells", "assay": "PARP cleavage (apoptosis) by Western blot in MIA PaCa-2 cells", "conditions": "co-treatment with the therapeutic agent for KRAS G12C genetic mutation vs either agent alone, twenty four hours (FIG. 3)", "experimental": "To identify the effect of aripiprazole on apoptosis induced by the therapeutic agent for KRAS G12C genetic mutation in cancer cells, MIA PaCa-2 cells were treated with aripiprazole alone or in combination with the therapeutic agent for KRAS G12C genetic mutation. Twenty four hours later, proteins were extracted from cells after washing with PBS, and the degree of PARP cleavage was checked via Western blot."}, "[4]": {"tested_on": "NOXA protein", "assay": "NOXA protein expression by Western blot in MIA PaCa-2 cells", "conditions": "aripiprazole treatment, eight hours, Western blot (FIG. 1)", "experimental": "as §1"}}}
{"compound": "O=C1CCc2ccc(OCCCCN3CCN(c4cccc(Cl)c4Cl)CC3)cc2N1", "note": "[aripiprazole]", "values": [{"measurement": "degree of PARP cleavage", "setting": "[1]", "result": "superior effect of inducing PARP cleavage"}, {"measurement": "expression of NOXA protein", "setting": "[2]", "result": "increased"}, {"measurement": "degree of PARP cleavage", "setting": "[3]", "result": "superior effect of inducing PARP cleavage"}, {"measurement": "expression of NOXA protein", "setting": "[4]", "result": "increased"}]}
